Measurements from patent US20080206422A1, “Flavour Modulating Substances” (QUEST INTERNATIONAL SERVICES B.V., priority 2004, published 2008).

Legend:
[1] = Tasting of Nam Pla (Thai fish sauce) samples by a professional panel; conditions: sample 6: Nam Pla + 20 ppm of composition of example 2
Description: (§1) Six samples were prepared:
3. Nam Pla* ex Unilever Thailand;
4. Nam Pla ex Unilever Thailand+100 ppm of a composition as prepared in example 1;
6. Nam Pla ex Unilever Thailand+20 ppm of a composition as prepared in example 2.
Nam Pla is a Thai fish sauce produced from a mixture of fish (anchovy), salt and sugar that is fermented for more than 6 months at 30-35° C. Protein hydrolysate and lipid oxidation products are formed through microbiological and enzymatic breakdown of the fish.
(§2) All samples were tasted by a professional panel. There was general agreement about the differences in taste between the samples.

[2] = Tasting of fish bouillon samples by a professional panel; conditions: sample 5: fish bouillon + 20 ppm of composition of example 2
Description: as §1
2. Fish bouillon+100 ppm of a composition as prepared in example 1;
5. Fish bouillon+20 ppm of a composition as prepared in example 2; and
as §2

[3] = Tasting session of tap water solutions by a professional panel
Description: For a tasting session the following solutions were prepared: • 1) A solution of 0.025% of a composition as prepared in example 1 in tap water; • 2) A solution of 0.025% of a composition as prepared in example 1 and 0.3% NaCl in tap water; • 3) A solution of 0.025% of a composition as prepared in example 1, 0.3% NaCl and 0.03% mono sodium glutamate in tap water; • 4) A solution of 0.005% of a composition as prepared in example 2 in tap water; • 5) A solution of 0.005% of a composition as prepared in example 2 and 0.3% NaCl in tap water; and • 6) A solution of 0.005% of a composition as prepared in example 2, 0.3% NaCl and 0.03% mono sodium glutamate in tap water. • All samples were tasted by a professional panel.

CC(O)C(=O)NCCc1ccc(O)cc1 (stereo not drawn) [example 2, N-lactoyl tyramine]
difference in taste compared with plain Nam Pla (sample 3) [1]: more body and mouthfeel, a stronger sweet taste impression and a more longlasting effect | fermented fish character and perceived quality compared with plain Nam Pla (sample 3) [1]: a more rounded, natural fermented fish character and was perceived as a higher quality Nam Pla | difference in taste compared with plain fish bouillon (sample 1) [2]: more body and mouthfeel, a stronger sweet taste impression and a more longlasting effect | taste description by professional panel ([3]; solution 4): 0.005% of composition of example 2 in tap water): a clean mouthfeel, body and thickness | taste description by professional panel ([3]; solution 5): 0.005% of composition of example 2 and 0.3% NaCl in tap water): a longlasting effect, a clean mouthfeel, body and thickness and as bouillon-like | taste description by professional panel ([3]; solution 6): 0.005% of composition of example 2, 0.3% NaCl and 0.03% mono sodium glutamate in tap water): a longlasting effect, a strong clean mouthfeel, body and thickness and as strong, natural and complex bouillon-like
